AC50 data for 31 compounds are collected here from PubChem BioAssay AID1259334 (Broad Institute, 2017).

Activity calls are given as the source filed them. Rule as the data show it: active = AC50 below about 11 µM. Peptide text beside a SMILES is read from it. * marks the point of attachment. Cbz = O=C(OCc1ccccc1)*

By AC50 is commonly meant the midpoint of the concentration-response curve, whichever way the signal moves.

The assay deals with B cell line, TNFa signaling counterscreen reporter. Kind of assay: TNFa signaling inhibitors in B cell line, dose response, counter-screen (AID 1259334).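 Also: cells stimulated with TNFa after compound preincubation.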

For `C=C1C(=O)OC2C=C(CO)C3OC3C3OC3(C)CC(OC(=O)/C(=C/C)COC(C)=O)C12` (stereo unspecified), the half-maximal activity concentration (AC50) was 1.67 µM.

Consider `CC(C)C[C@@H](C=O)NC(=O)[C@H](CC(C)C)NC(=O)[C@H](CC(C)C)NC(=O)OCc1ccccc1` (Cbz-Leu-Leu-Leu-aldehyde), for which the AC50 was 3.82 µM.

For the compound `C[C@H]1CN([C@@H](C)CO)C(=O)c2c(c3ccccc3n2C)-c2ccccc2CO[C@@H]1CN(C)C(=O)Nc1cccc(C(F)(F)F)c1`, the AC50 was 9.38 µM.

In the case of `COc1ccc(-c2cc(-c3ccccc3)c(C#N)c(S(C)=O)n2)cc1` (stereo unspecified), the concentration at half-maximal activity (AC50) is 1.53 µM.

As for `CC[C@@]1(O)C(=O)OCc2c1cc1n(c2=O)Cc2cc3c(CN(C)C)c(O)ccc3nc2-1`, the AC50 was 1.01 µM.

Take `Cc1ccc2c(=O)c3ccccc3n(CCCN)c2c1C`: the concentration at half-maximal activity (AC50) was 3.28 µM.

`CNc1c2cccc(C)c2nc2c(C(=O)NCCN(C)C)cccc12`: the AC50 is 0.583 µM.

`Cc1ccc2nc(C(F)(F)F)c(C#N)c(N)c2c1`: the AC50 is 7.61 µM.

As for `O=C(Nc1ccccc1F)N1C[C@@H]2N[C@H](C1)C2c1ccc(/C=C/c2ccccc2)cc1` (stereo partly specified), the AC50 is 1.39 µM.

For the compound `CCCCCCCCCc1ccc(OCCOCCOCCOCCOCCOCCOCCOCCOCCO)cc1`, the concentration at half-maximal activity (AC50) is 4.58 µM.

On to `O=C(CNC(=O)c1ccco1)Nc1ccc2c(c1)OCCO2`, for which the AC50 was > 20 µM (inactive).

Regarding `CC(C)OC(=O)c1cn(Cc2c(F)cccc2F)c2sc(-c3ccc(NC(=O)C(C)C)cc3)c(CN(C)Cc3ccccc3)c2c1=O`, the AC50 is 8.24 µM.

In the case of `O=C1C=CC2C3C(=O)N(c4ccccc4)C(=O)C3C1N2Cc1ccccc1` (stereo unspecified), the concentration at half-maximal activity (AC50) was 1.52 µM.

On to `CCN1C(=O)C(CC(=O)Nc2ccc(F)cc2)N(Cc2ccco2)C1=S` (stereo unspecified), for which the AC50 was > 20 µM (inactive).

`O=C(Cc1ccccc1)N1CC[C@@H]2[C@H]1c1cc(-c3cccc(F)c3)ccc1N[C@@H]2CO`: the AC50 was 10.7 µM.

`CCC(=O)O[C@]1(C(=O)CCl)[C@@H](C)C[C@H]2[C@@H]3CCC4=CC(=O)C=C[C@]4(C)[C@@]3(F)[C@@H](O)C[C@@]21C`: the AC50 was > 20 µM (inactive).

As to `Cc1c(CCOC(=O)CC23CC4CC(CC(C)(C4)C2)C3)sc[n+]1CC(=O)c1ccccc1`, the half-maximal activity concentration (AC50) is 1.81 µM.

For the compound `O=[N+]([O-])c1ccc(N2CCOCC2)c2c1no[n+]2[O-]`, the AC50 is 6.5 µM.

With `COc1ccc(CN(CCC(c2ccc(F)cc2)C2CCOC(C)(C)C2)C(=O)c2ccco2)cc1` (stereo unspecified), the AC50 is 11.3 µM.

On to `CCOC(=O)c1c(SCCN2CCCC2)n(-c2ccccc2)c(=S)n(-c2ccccc2)c1=O`, for which the AC50 is 4.78 µM.

With `CC[C@@]1(O)C(=O)OCc2c1cc1n(c2=O)Cc2cc3cc(O)ccc3nc2-1`, the AC50 is 1.13 µM.

In the case of `Cn1cc(C2=C(c3cn(CCCSC(=N)N)c4ccccc34)C(=O)NC2=O)c2ccccc21`, the AC50 is 0.305 µM.

Regarding `CC[C@@]1(O)C(=O)OCc2c1cc1n(c2=O)Cc2cc3ccccc3nc2-1`, the concentration at half-maximal activity (AC50) is 0.531 µM.

On to `COC(=O)C12OCC34C(CC5C(C)=C(O)C(=O)CC5(C)C3C(O)C1O)OC(=O)C(OC(=O)C=C(C)C)C24` (stereo unspecified), for which the AC50 is 0.671 µM.

Consider `Cc1ccc(S(=O)(=O)NC(C(=O)Oc2cc3oc(=O)cc(C)c3cc2Cl)C(C)C)cc1` (stereo unspecified), for which the half-maximal activity concentration (AC50) was 9.41 µM.

With `C[C@H]1CN([C@@H](C)CO)C(=O)Cc2cc(NC(=O)Cc3cn(C)c4ccccc34)ccc2O[C@H]1CN(C)Cc1ccc(C(F)(F)F)cc1`, the AC50 is > 20 µM (inactive).

In the case of `N#C[C@@H]1[C@H](c2ccc(C#CC3CCCCC3)cc2)[C@H](CO)N1C(=O)Nc1ccc(F)cc1`, the AC50 is > 20 µM (inactive).

For `Clc1ccc(CSC(Cn2ccnc2)c2ccc(Cl)cc2Cl)cc1` (stereo unspecified), the AC50 is > 20 µM (inactive).

As for `COc1ccc(CC2C(=O)NC(C)C(=O)N(C)C3Cc4ccc(cc4)Oc4cc(ccc4O)CC(C(=O)NC(C)C(=O)NC(C)C(=O)N2C)N(C)C3=O)cc1` (stereo unspecified), the concentration at half-maximal activity (AC50) was 0.00464 µM.

In the case of `O=C1NC2C(=CC(O)C(O)C2O)c2cc3c(c(O)c21)OCO3` (stereo unspecified), the AC50 is 0.0423 µM.

Take `C[C@H](CO)N1C[C@H](C)[C@H](CN(C)CC2CCCCC2)OCCCC[C@H](C)Oc2ccc(NC(=O)Nc3ccc(C(F)(F)F)cc3)cc2C1=O`: the AC50 is 7.26 µM.
